We go through one compound from patent US9733187B2, “Method of detecting bladder cancer by optical analysis of bodily fluids” (KING SAUD UNIVERSITY, priority 2015, dated 2017).

Each structure is given as a SMILES string.

The conditions of data set [1]: porphyrin synthesized from administered 5-aminolevulinic acid; cited from earlier work.
Data set [2] is described as follows: Porphyrin elimination after oral administration of 5-aminolevulinic acid. It counts as in vivo.
Protocol: The patient is administered 5-aminolevulinic acid (also referred to as 8-aminolevulinic acid), which is the first compound in the porphyrin synthesis pathway (i.e., the pathway that leads to heme in mammals). The 5-aminolevulinic acid is preferably administered orally at a dosage of approximately 5 mg of 5-aminolevulinic acid per kilogram of the patient's body weight. The patient can drink water upon taking the 5-aminolevulinic acid. The patient can wait approximately eight hours before urinating.
Approximately eight hours after oral administration of the 5-aminolevulinic acid, a bodily fluid sample is collected from the patient, and this bodily fluid sample is optically analyzed to measure a concentration of porphyrin therein. Preferably, multiple bodily fluid samples are taken at two hour intervals (i.e., one initial sample at the time of administration, and then subsequent samples taken at two hours, four hours, six hours and eight hours after administration). The bodily fluid being analyzed may be urine and/or blood.
Porphyrin is synthesized by the 5-aminolevulinic acid which is administered to the patient.

Regarding `C1=Cc2cc3ccc(cc4nc(cc5ccc(cc1n2)[nH]5)C=C4)[nH]3` [Porphyrin, porphyrin], the half-life result in data set [1] is listed as “approximately two”. For the same compound, in data set [2] (bladder cancer patients), the porphyrin retention time entry was “up to eight”. Also, the “porphyrin eliminated through urine” value in data set [2] (healthy person, after four hours following administration of 5-aminolevulinic acid) is recorded as “approximately 90%”.
